From patent US8603990B2, “Grafted macromolecular conjugates of doxorubicin with anticancer activity and method of their preparation” (priority 2006, dated 2013)
≈ marks a conversion by molar mass, not a printed value.

What was measured:
[1] = system: mouse T cellular lymphoma EL4; settings: for Mice surviving on the 70th day: end of experiment day 70
Description: The in vivo experiments involved a model of mouse T cellular lymphoma EL4, the experimental animals were mice (males) of the B/6 species that were subcutaneously implanted with 10^5 tumor cells on day 0. The conjugates were applied intravenously in a dose of 1×15 mg/kg of DOX equivalent. This single application was carried out on the ninth day after the tumor cells transplantation, i.e. at a time when the tumor was palpable, about approx. 400 mm^3 in size.

cathepsine B = cathepsine B (Homo sapiens, UniProt P07858); assay: Degradation of grafted conjugates by cathepsine B; type: in vitro ADME; settings: cathepsine B 5.10^−7 mol/l, pH 6, 37° C., 24 hours
Description: The degradation experiments were carried in a phosphate buffer (0.1 M phosphate buffer containing 0.05 M NaCl, pH 6) in the presence of cathepsine B or glutathione in the role of degradation agents, i.e. in the environment modeling intracellular environment (cytoplasm, endosome and secondary lysosome). The grafted polymeric conjugates were dissolved in the phosphate buffer in concentration of 50 mg/ml and immediately before the solutions were placed in a thermostat (37° C.) a stock solution of cathepsine B or glutathione was added to the solutions so that the final concentration of these agents in the incubation medium was 5.10^−7 mol/l and 3.10^−3 mol/l for cathepsine and glutathione, respectively. In predetermined intervals aliquot parts (200 μl) were sampled from the incubation solutions. The samples were desalinated in the PD-10 columns and lyophilized. The molecular weight of the degradation products was measured using the Shimadzu SIL-HT liquid chromatograph fitted with a differential refractometer (Shimadzu RID-10A) and multiangle light dispersion detector (DAWN EOS, Wyatt Technology, USA). The analysis was carried out in a Superose™ 6 column (300×10 mm) (Amersham Bioscience). […] The molecular weight and polydispersity of the copolymer was calculated using the Astra software. […]

[2] = system: SW620 (human colorectal carcinoma); assay: In vitro cytotoxicity, SW620 line; type: cell-based; settings: SW-620, SW620 cells, repeated values per sample
Jurkat = assay: In vitro cytotoxicity, Jurkat line; type: cell-based; settings: Homo sapiens; Jurkat cells; repeated values per sample
[3] = 1×15 mg/kg DOX equivalent i.v. on day 9

Row | Compound | Anticancer effect [1, 3] | Mice surviving on the 70th day [1, 3] | Survival: day of animal death or LTS (individual mice) ([1]; B/6 mice, EL 4 10^5 cells s.c. day 0, one i.v. dose 15 mg/kg DOX equivalent on day 9) | Weight decrease as a sign of toxicity [1, 3] | Molecular weight of degradation products (cathepsine B) | IC50 [2] | IC50 (Jurkat)
1 | poly(HPMA-co-MA-AH-NHNH2-co-MA-AH-NHN=DOX-co-MA-AH-SS—)-graft-[(SS)-poly(HPMA-co-MA-AH-NHNH2-MA-AH-NHN=DOX)] [Conjugate 3a] | very significant anticancer effect | 100% | LTS |  |  |  | 
2 | poly(HPMA-co-MA-AH-NHNH2-MA-AH-NHN=DOX-co-MA-GFLG-NH—)-graft-[(GFLG)-poly(HPMA-co-MA-AH-NHNH2-co-MA-AH-NHN=DOX)] [Conjugate 1d] | very significant anticancer effect | 88% |  | no weight decrease | below the renal filtration limit |  | 
3 | COc1cccc2c1C(=O)c1c(O)c3c(c(O)c1C2=O)C[C@@](O)(C(=O)CO)C[C@@H]3O[C@H]1C[C@H](N)[C@H](O)[C@H](C)O1 [Dox, doxorubicin] |  |  |  |  |  | 0.003 µg/mL (≈ 0.00552 µM) | 0.119 µg/mL (≈ 0.219 µM)
